Results: ChEMBL document CHEMBL3430912, “GSK Tres Cantos Anti-Kinetoplastid Screening (TCAKS) Data”

How the values were obtained:
[1] = system: Leishmania donovani; test: (§1) GSK_TCAKS: pIC50 Leishmania donovani Imaging: Amastigotes/Macrophages. Assay plates (384-well) were prepared by adding 250nL of compound to each well. For single shot assay, the final compound concentration was 5 uM. […] Automated image analysis was performed with a script developed on Acapella High Content Imaging and Analysis Software (PerkinElmer). Output: Average number of amastigotes per macrophage cell were reported for each well.; assay type: functional, organism-based, Homo sapiens; conditions: THP-1
[2] = molecular target: Sterol 14-alpha demethylase (Trypanosoma cruzi (strain CL Brener), UniProt Q7Z1V1); test: GSK_TCAKS: pIC50 CYP51 from Trypanosoma cruzi.; assay type: functional
[3] = GSK_TCAKS: pIC50 HepG2 human cell line viability assay using luminiscence. […] Seeding density was checked to ensure that new mono-layers were not more than 50% confluent at the time of harvesting. Cell suspension was added to 500 mL of the same medium at a final density of 1.2 * 10^5 cells/mL. This cell suspension was dispensed (25 uL, 3000 cells per well) into 384-well clear-bottom plates using a Multidrop Combi dispenser. Prior to addition of the cell suspension, the screening compounds (250 nL) were pre-dispensed into the plates with an Echo liquid handler. Plates were incubated for 48 h at 37C, 5% CO2. After incubation, plates equilibrated at room temperature for 30 min before proceeding to develop the luminescent signal. The signal developer, CellTiter-Glo Reagent, was allowed to equilibrate at room temperature for 30 min and added to the plates (25uL per well) using a Multidrop Combi dispenser. Plates were left for 10 min at room temperature for stabilization and then read using a ViewLux.; assay type: toxicity, cell-based
[4] = system: Leishmania donovani; test: as §1, with “Infected Macrophages.” for “Amastigotes/Macrophages.”, “Percent” for “Average number”, “infected” for “amastigotes per”, “cells” for “cell”; assay type: functional, organism-based, Homo sapiens; conditions: THP-1
[5] = system: Leishmania donovani; test: as §1, with “THP-1 Host Macrophages.” for “Amastigotes/Macrophages.”, “THP-1” for “Average number of amastigotes per macrophage”, “cell count” for “cell”; assay type: functional, organism-based, Homo sapiens
[6] = system: Leishmania donovani; test: GSK_TCAKS: pIC50 Leishmania donovani viability assay using fluorescence intensity. Assay plates (1536-well) were prepared by adding 30nL per well of compound. For single shot assay, the final compound concentration was 5uM. […] Briefly, eGFP LdBOB axenic amastigotes were harvested, fixed and counted in a CASY cell counter (Roche-Applied Science). A final concentration of 1.5 * 10^5 cells per well were prepared in amastigote media containing 500 U/mL penicillin/streptomycin (Invitrogen) and 6uL was dispensed to each experimental well using a Multidrop Combi dispenser (Thermo Scientific). 6uL of assay media was dispensed to control columns used as reference for 100% compound response. Following incubation for 72 h at 37C, 5% CO2, 2 uL of resazurin was added to each well at a final concentration of 0.5 mM in phosphate buffered saline (PBS) with IGEPAL (Sigma-Aldrich), 0.05% (v/v).; assay type: functional, organism-based
[7] = system: Trypanosoma brucei brucei; test: GSK_TCAKS: pIC50 Trypanosoma brucei viability assay using fluorescence intensity. Assay plates (1536-well) were prepared by dispensing 25nL of compound solution per well using an Echo acoustic dispenser (Labcyte).; assay type: functional, organism-based; conditions: Lister 427, 2 h
[8] = system: Trypanosoma cruzi; test: GSK_TCAKS: pIC50 Trypanosoma cruzi viability assay using beta-GAL activity. This assay was run at single shot at 5uM compound concentration per well. The biological reagents consisted of NIH-3T3 host cells and trypomastigotes parasitic cells; both cell types were set to a 3.3 * 10^5 cells/mL dilution in assay DMEM by means of a CASY cell counter device using a 60um capillary. 6 uL of the mixture were dispensed per well (about 1 * 10^3 host-cells and 1 * 10^3 parasites) with a Multidrop Combi dispenser. […] In all wells, the percentage of DMSO never exceeded 0.5%. Plates incubated for four days at 37C, 5% CO2. The substrate used for the assay fluorescence intensity (FLINT) readout was resorufin-beta-D-galactopiranoside (Sigma-Aldrich) at 5uM per well. It was diluted in PBS supplemented with the soft detergent Igepal (Fluka).; assay type: functional, organism-based, Mus musculus; conditions: Tulahuen, NIH3T3
[9] = system: Trypanosoma cruzi; test: (§2) GSK_TCAKS: pIC50 Trypanosoma cruzi Imaging: Amastigotes/Cell. […] Cells were then washed once with PBS before infection. T. cruzi trypomastigotes, collected at days 5 to 8 after infection from LLC-MK2 parasite infected cultures, were allowed to swim out for 4h at 37C from a centrifuged pellet (2,500 rpm/10 min/room temperature). Trypomastigotes were then collected and counted in a CASY Cell Counter. Trypomastigotes, in supplemented DMEM, were added to H9c2 cultures in a multiplicity of infection of 1 and incubated for 18 h. Cells were washed once with PBS before incubation of the infected H9c2 monolayer with trypsin (Life-Technologies) to detach cells from the flask. Cells were counted in a CASY Cell Counter using a 150 um capillary and their density set at 5 * 10^4 cells per mL in supplemented assay DMEM. Infected H9c2 were dispensed into 384-well poly-lysine coated assay plates at 50uL per well using a Multidrop Combi dispenser. After seeding them, the plates were incubated at 37C, 5% CO2 for 72h. Cultures were then fixed and stained by addition of 50 uL of a solution containing 8% formaldehyde and 4 uM DRAQ5 DNA dye (BioStatus, UK) per well. […] Five images were collected per well for reliable statistical analysis. Automated image analysis was performed with a script developed on Acapella High Content Imaging and Analysis Software (PerkinElmer). Output: number of amastigotes per cell as infection level measurement.; assay type: functional, organism-based, Rattus norvegicus; conditions: H9c2, 4 h
[10] = system: Trypanosoma cruzi; test: as §2, with “H2C9” for “Trypanosoma cruzi”, “H9c2 Host Cardiomyocytes.” for “Amastigotes/Cell.”, “Number” for “number”, “H9c2 Host Cardiomyocytes nuclei to determine drug-related cytotoxicity.” for “amastigotes per cell as infection level measurement.”; assay type: functional, organism-based, Rattus norvegicus; conditions: H9c2, 4 h
[11] = system: Trypanosoma brucei brucei; test: GSK_TCAKS: pIC50 Trypanosoma brucei viability assay using luminiscence. Assay plates (1536-well) were prepared. T. brucei cultures were harvested and counted in a CASY cell counter. A parasite suspension was prepared at a final concentration of 5 * 10^4 cells/mL in complete HMI9 medium and 6uL was dispensed to all wells containing compounds using a Multidrop Combi dispenser. 6uL of HMI9 media with 0.4% DMSO were dispensed to control columns. Plates were incubated for 24 h at 37C, 5% CO2 then tempered for 10 min at room temperature. ATP content was quantified by adding 4 uL of CellTiter-Glo Reagent (Promega) according to the manufacturer's instructions. Luminescence was measured using a ViewLux.; assay type: functional, organism-based; conditions: Lister 427, CASY
[12] = system: Trypanosoma cruzi; test: GSK_TCAKS: pIC50 Trypanosoma cruzi Imaging: Infected Cells. […] Cells were then washed once with PBS before infection. T. cruzi trypomastigotes, collected at days 5 to 8 after infection from LLC-MK2 parasite infected cultures, were allowed to swim out for 4h at 37C from a centrifuged pellet (2,500 rpm/10 min/room temperature). Trypomastigotes were then collected and counted in a CASY Cell Counter. Trypomastigotes, in supplemented DMEM, were added to H9c2 cultures in a multiplicity of infection of 1 and incubated for 18 h. Cells were washed once with PBS before incubation of the infected H9c2 monolayer with trypsin (Life-Technologies) to detach cells from the flask. Cells were counted in a CASY Cell Counter using a 150 um capillary and their density set at 5 * 10^4 cells per mL in supplemented assay DMEM. Infected H9c2 were dispensed into 384-well poly-lysine coated assay plates at 50uL per well using a Multidrop Combi dispenser. After seeding them, the plates were incubated at 37C, 5% CO2 for 72h. Cultures were then fixed and stained by addition of 50 uL of a solution containing 8% formaldehyde and 4 uM DRAQ5 DNA dye (BioStatus, UK) per well. […] Five images were collected per well for reliable statistical analysis. Automated image analysis was performed with a script developed on Acapella High Content Imaging and Analysis Software (PerkinElmer). Output: percentage of infected cells per well as a second infection marker.; assay type: functional, organism-based, Rattus norvegicus; conditions: H9c2, 4 h

Chain of Sterol 14-alpha demethylase (Q7Z1V1 whole entry): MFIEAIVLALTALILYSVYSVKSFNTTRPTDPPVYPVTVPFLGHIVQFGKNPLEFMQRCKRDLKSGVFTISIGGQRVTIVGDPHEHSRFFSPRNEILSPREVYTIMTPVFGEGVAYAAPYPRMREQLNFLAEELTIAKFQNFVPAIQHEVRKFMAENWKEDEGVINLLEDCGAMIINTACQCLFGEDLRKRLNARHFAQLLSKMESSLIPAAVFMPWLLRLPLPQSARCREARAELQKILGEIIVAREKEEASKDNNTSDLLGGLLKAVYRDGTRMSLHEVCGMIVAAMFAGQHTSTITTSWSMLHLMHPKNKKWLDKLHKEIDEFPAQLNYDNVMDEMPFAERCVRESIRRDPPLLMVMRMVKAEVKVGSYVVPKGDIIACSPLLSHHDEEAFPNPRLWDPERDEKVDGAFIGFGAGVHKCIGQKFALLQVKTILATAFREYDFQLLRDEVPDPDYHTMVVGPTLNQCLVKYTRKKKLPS

| SMILES | IC50 [1] [µM] | IC50 [2] [µM] | IC50 at 48 h [3] [µM] | IC50 [4] [µM] | IC50 [5] [µM] | IC50 [6] [µM] | IC50 [7] [µM] | IC50 [8] [µM] | IC50 [9] [µM] | IC50 [10] [µM] | IC50 [11] [µM] | IC50 [12] [µM] |
| --- | --- | --- | --- | --- | --- | --- | --- | --- | --- | --- | --- | --- |
| CC(c1cc(Cl)cc(Cl)c1)N(C)c1ncc2c(N)nc(N)nc2n1 (centres undefined) | 0.251 | 39.8 | 63.1 | 0.794 | 31.6 | 0.794 | > 39.8 | 0.0631 | 0.001 | 7.94 | 31.6 | 0.002 |
| COc1ccnc2[nH]cc(-c3cc(C(=O)N[C@H](CO)c4ccccc4)co3)c12 | 2 | 0.794 | 15.8 | 7.94 | 0.794 | 25.1 | 0.00501 | 1.26 | 7.94 | 0.316 | 0.0126 | 20 |
| COc1ccc(-c2cnc(NC(=O)c3cc(-c4ccccn4)n[nH]3)n2C)cc1 | 0.794 | 15.8 | > 100 | 1 | > 50.1 | 3.98 | 0.398 | 3.55 | 3.98 | > 50.1 | 10 | 5.01 |
| CCCc1cc(C(=O)Nc2ncc(-c3cccc(Br)c3)n2C)[nH]n1 | 3.98 | 25.1 | > 100 | 5.01 | 31.6 | 6.31 | 2.51 | 2.51 | 2.51 | > 50.1 | 1.26 | 3.98 |
| Cc1nn2c(NCCCO)c3c(nc2c1-c1cccs1)CCC3 | > 50.1 | 25.1 | > 100 | > 50.1 | > 50.1 | 2 | 0.316 | 15.8 | 5.01 | > 50.1 | 0.398 | 50.1 |
| CC(C)S(=O)(=O)c1ccc(-c2cnc(N)c3cc(-c4ccnc(N)n4)ccc23)cc1 | 0.501 | 15.8 | 15.8 | 1.26 | 2.51 | 2 | 0.2 | 0.794 | 12.6 | 0.501 | 0.251 | 39.8 |
| Cc1cc(Oc2cc(Cl)c(Cl)cc2Cl)n2ncnc2n1 | 12.6 | > 100 | 31.6 | 15.8 | 10 | 15.8 | 0.794 | 5.01 | 10 | 7.94 | 0.398 | 25.1 |
| COc1cnc2ccc(=O)n(CCN3CCC(NC(=O)c4ccc(Cl)cc4)CC3)c2c1 | 3.98 | 10 | > 100 | > 50.1 | > 50.1 | 2 | 0.0794 | 0.126 | 0.0794 | 0.631 | 0.1 | 0.251 |
| CCn1c(-c2nonc2N)nc2c([C@@H](C)O)ncc(O[C@H](CN)c3ccccc3)c21 | 3.16 | 25.1 | 79.4 | 5.01 | 3.16 | 20 | 0.631 | 7.94 | 7.94 | 0.631 | 0.794 | 10 |
| Cc1nn(-c2nc3ccccc3s2)c2c1C(c1ccc(OCC(N)=O)cc1)SCC(=O)N2 (centres undefined) | > 50.1 | > 100 | > 100 | > 50.1 | > 50.1 | > 50.1 | 0.02 | 5.01 | > 50.1 | > 50.1 | 0.0316 | > 50.1 |
| COc1cc(C2SCC(=O)Nc3c2c(C)nn3-c2nc3ccccc3s2)cc(OC)c1O (centres undefined) | 0.251 | 5.01 | > 100 | 0.316 | > 50.1 | 6.31 | 6.31 | > 50.1 | > 50.1 | > 50.1 | > 39.8 | > 50.1 |
| Cc1ccccc1NS(=O)(=O)c1ccc2[nH]cc(C(=O)NC3CCCC(C)C3C)c(=O)c2c1 (centres undefined) | 15.8 | 5.01 | 39.8 | 15.8 | 12.6 | 25.1 | 0.316 | 5.01 | 3.16 | 6.31 | 0.631 | 6.31 |
| COCCn1cnc2cc(NC(=O)C3CCCCC3)cc(C(=O)N3CCc4sccc4C3)c21 | > 50.1 | 50.1 | > 100 | > 50.1 | > 50.1 | > 50.1 | 0.794 | 20 | 20 | > 50.1 | 1 | 31.6 |
| CCC(=O)Nc1ccccc1C(=O)Nc1ccccn1 | > 50.1 | > 100 | > 100 | > 50.1 | > 50.1 | > 50.1 | 0.316 | > 50.1 | > 50.1 | > 50.1 | 0.398 | > 50.1 |
| COc1ncc(-c2ccc3nccc(-c4ccncc4)c3c2)cc1NS(=O)(=O)C1CC1 | 0.316 | 7.94 | > 100 | 1.26 | 1 | 1.26 | 0.2 | 0.316 | 2 | 0.794 | 0.398 | 2.51 |
| Cc1nc(N2CC(C)OC(C)C2)sc1C(=O)Nc1ccc2c(c1)OCO2 (centres undefined) | 3.16 | 39.8 | > 100 | 7.94 | > 50.1 | 6.31 | 39.8 | 2 | 2.51 | > 50.1 | > 39.8 | 3.98 |
| N#Cc1cccc(Cc2cc(Nc3cc(C4CC4)[nH]n3)nc(N3CC[C@H]3C(N)=O)n2)c1 | 0.0794 | 50.1 | > 100 | 0.2 | 0.0316 | 0.631 | 0.0398 | 0.398 | 1 | 0.00398 | 0.0631 | 3.98 |
